Reference: US8282910B2, “Composition for skin or hair” (Shiseido Company Ltd., priority 2007, dated 2012)

How the values were obtained:
[1] = background statement; cited from earlier work
[2] = Solubility of poorly-soluble UV absorbers in oils: dibenzoylmethane derivative (Test Example 3); type: physicochemical; details: 4-tert-butyl-4′-methoxydibenzoylmethane dissolved in the oil; supernatant after crystal nuclei, 0° C
Description: (§1) Each of triazine derivative and dibenzoylmethane derivative was warmed and dissolved into each oil shown in Table 2, and then each mixture was cooled to room temperature. After adding crystal nuclei, they were cooled at 0° C. A saturation solubility of each supernatant fluid was measured.
4-tert-butyl-4′-methoxydibenzoylmethane was used as a dibenzoylmethane derivative (i.e. component (a)).

[3] = Solubility of poorly-soluble UV absorbers in oils: triazine derivative (Test Example 3); type: physicochemical; details: 2,4-bis{[4-(2-ethylhexyloxy)-2-hydroxy]phenyl}-6-(4-methoxyphenyl) 1,3,5-triazine dissolved in the oil; supernatant after crystal nuclei, 0° C
Description: as §1
2,4-bis{[4-(2-ethylhexyloxy)-2-hydroxy]phenyl}-6-(4-methoxyphenyl) 1,3,5-triazine was used as triazine derivative.

SMILES	absorption maximum [1]	Saturation solubility of dibenzoylmethane derivative [2] [%]	Saturation solubility of triazine derivative [3] [%]
COc1ccc(C(=O)CC(=O)c2ccc(C(C)(C)C)cc2)cc1 [4-tert-butyl-4′-methoxydibenzoylmethane]	around 360 nm	–	–
CCCCCCCC(=O)OCC(COC(=O)CCCCCCC)(COC(=O)CCCCCCC)COC(=O)CCCCCCC [Pentaerithrityl tetraoctanoate]	–	6	4
